Assay results published in the NIST ThermoML archive (doi:10.1021/je800463k).

Assay: mn = molality of the nth substance listed, in mol/kg
Conditions: 101 kPa, Liquid; for electrical conductivity: Frequency=0.001 MHz, Alternating current cell with electrodes; for speed of sound: Frequency=2 MHz

O=[N+]([O-])[O-].O=[N+]([O-])[O-].[Mg+2] [magnesium nitrate] + CO
Conditions | electrical conductivity, 273.15 K [S/m] | electrical conductivity, 278.15 K [S/m] | electrical conductivity, 283.15 K [S/m] | electrical conductivity, 288.15 K [S/m] | speed of sound, 273.15 K [m/s] | speed of sound, 278.15 K [m/s] | speed of sound, 283.15 K [m/s] | viscosity, 273.15 K [mPa·s] | viscosity, 278.15 K [mPa·s] | viscosity, 283.15 K [mPa·s]
m1 = 0.0082 | 0.1095 | 0.1165 | 0.1221 | 0.1281 | 1187.6 | 1171.2 | 1158.5 | 0.8298 | 0.7627 | 0.7006
m1 = 0.0545 | 0.3036 | 0.321 | 0.3368 | 0.3616 | 1194.3 | 1178.6 | 1163.6 | 0.8885 | 0.8108 | 0.7465
m1 = 0.0667 | 0.3337 | 0.3538 | 0.3738 | – | 1197.6 | 1181.3 | 1164.3 | 0.9109 | 0.836 | 0.775
m1 = 0.1047 | 0.4393 | 0.4655 | 0.4908 | – | 1202.4 | 1185.8 | 1168.9 | 0.9548 | 0.8755 | 0.8049
m1 = 0.2776 | 0.8097 | 0.8637 | 0.9168 | – | 1220.4 | 1203 | 1187.4 | 1.129 | 1.029 | 0.9437
m1 = 0.4024 | 1.002 | 1.073 | 1.143 | – | 1228.8 | 1214.1 | 1198.4 | 1.336 | 1.213 | 1.109
m1 = 0.4555 | 1.043 | 1.117 | 1.192 | – | 1237 | 1222.1 | 1204.7 | 1.4 | 1.273 | 1.158
m1 = 0.6276 | 1.207 | 1.3 | 1.394 | – | 1253.3 | 1235.6 | 1219.1 | 1.836 | 1.732 | 1.562
m1 = 0.782 | 1.31 | 1.417 | 1.528 | – | 1270.9 | 1254.4 | 1238.3 | 2.128 | 1.905 | 1.719
m1 = 0.881 | 1.334 | 1.447 | 1.561 | – | 1274.9 | 1257.8 | 1241 | 2.18 | 1.938 | 1.743
m1 = 0.9116 | 1.344 | 1.459 | 1.573 | – | 1279.9 | 1263.2 | 1247.8 | 2.329 | 2.079 | 1.866
m1 = 1.004 | 1.372 | 1.494 | 1.618 | – | 1293.4 | 1277.2 | 1261.1 | 2.559 | 2.278 | 2.041
m1 = 1.259 | 1.361 | 1.494 | 1.632 | – | 1315.8 | 1298.8 | 1282.7 | 3.717 | 3.26 | 2.891
m1 = 1.492 | 1.314 | 1.453 | 1.597 | – | 1340.4 | 1324.8 | 1308.1 | 4.748 | 4.119 | 3.619
m1 = 1.71 | 1.281 | 1.436 | 1.59 | – | 1360.5 | 1343.7 | 1327.3 | 6.086 | 5.244 | 4.554
m1 = 1.875 | 1.238 | 1.383 | 1.538 | – | 1368.6 | 1352.5 | 1335.4 | 7.175 | 6.178 | 5.339
